Measurements taken from patent US20240368727A1, “METHOD OF SELECTIVE PRECIPITATION OF METALS USING AMIDE COMPOUNDS” (The University Court of the University of Edinburgh, priority 2021, published 2024).

Key:
[1] = Precipitation of Au by L from various aqueous matrices (Table 1); conditions: 0.059 g L, 1 hour, room temperature
Protocol: Conditions: 2 mL Au solution contacted with 0.059 g L for 1 hour, room temperature. Solution filtered and diluted 100× in 2% HNO3 prior to ICP-OES analysis. *HAuCl4 used. **Au^0 added to sulfuric acid solution with a few drops of 30% hydrogen peroxide added to aid dissolution of Au. All solutions were diluted 100× prior to ICP-OES analysis.

[2] = Precipitation of HAuCl4 by L from 2 M HCl (Table 2); conditions: 0.01M HAuCl4 in 2M HCl after contact with L
Protocol: Table 2 below describes precipitation of HAuCl4 by L from 2 M HCl followed by its release from L as HAuCl4 using deionised water. All solutions were diluted 100× prior to ICP-OES analysis.

[3] = Precipitation from 0.01 M mixed-metal solution in HCl (FIG. 2): Au
Protocol: (§1) Hydrochloric acid solutions (2 M and 6 M) were prepared by dilution of concentrated hydrochloric acid with deionised water. Mixed-metal solutions (0.01 M) were typically prepared by dilution of 0.1 M stock solutions of each individual metal salt solution in 2 or 6 M HCl.
(§2) Solid compound L (0.2 mmol or 0.02 mmol) was added to a vial with a magnetic stir bar and the metal-containing aqueous solution (2 mL) added. The mixture was stirred for 1 hour at room temperature (20° C.) at 500 rpm after which the stir bar was removed and the vial centrifuged. The supernatant was decanted and samples prepared for ICP-OES analysis to measure the uptake of metal by L. Samples were diluted by 100× in 2% nitric acid prior to ICP-OES analysis. This procedure was repeated in triplicate.
(§3) FIG. 2 is a graph showing percentage metal(s) removed by precipitation from a 0.01 M mixed-metal solution in 2 M or 6 M HCl following the addition of either 0.2 mmol of compound L (10-fold excess L relative to metal) or 0.02 mmol of L (equimolar).

[4] = Precipitation from 0.01 M mixed-metal solution in HCl (FIG. 2): other metals; conditions: 0.2 mmol solid L (10-fold excess), 0.01 M mixed-metal solution in 2 M HCl
Protocol: as §1, §2, §3

[5] = Precipitation from 0.01 M mixed-metal solution in HCl (FIG. 2): Fe; conditions: excess L, 0.01 M mixed-metal solution in 6 M HCl
Protocol: as §1, §2, §3

[6] = Precipitation from 0.01 M mixed-metal solution in HCl (FIG. 2): Sn; conditions: excess L, 0.01 M mixed-metal solution in 6 M HCl
Protocol: as §1, §2, §3

[7] = Precipitation from 0.01 M mixed-metal solution in HCl (FIG. 2): Pt; conditions: excess L, 0.01 M mixed-metal solution in 6 M HCl
Protocol: as §1, §2, §3

[8] = Selective stripping with H-tube apparatus (FIG. 3)
Protocol: Solid L (0.2 mmol) was added to one side of the H-tube with a stir bar. The metal-containing aqueous solution (2 mL) was then added to the solids and the mixture stirred for 1 hour at room temperature at 500 rpm, after which it was passed through the glass frit of the H-tube with the aid of compressed air or N2 gas. The filtrate was collected for ICP-OES analysis to determine metal uptake. The solids were subsequently washed with 2 M HCl (3×2 mL) for 30 mins, with each 2 mL solution being passed through the glass frit of the H-tube. The solids were then washed with ultrapure deionised water (5×2 mL) in the same manner. The use of a H-tube allows for all solids to be retained in the same vessel to minimise any loss of metal due to material transfer. This procedure was repeated in duplicate.
(a) orange bars: Percentage metal removed by precipitation from a 0.01 M mixed-metal solution in 6 M HCl.
(b) green bars: percentage of metal stripped from the precipitate by a 2 M HCl wash.
(c) blue bars: percentage of metal stripped from the precipitate after a subsequent wash with DI water.

[9] = Precipitation from multi-element ICP standard solutions (FIG. 4, FIG. 25): Au; conditions: excess compound, 24 hours, RT
Protocol: (§4) The following ICP multi-element standard solutions were used: Transition metal mix 3 for ICP supplied by Sigma Aldrich comprising 100 mg L^−1 Au, Ir, Os, Pd, Pt, Rh, Ru in 10% hydrochloric acid and ICP multi-element standard solution IV comprising 1000 mg L^−1 Ag, Al, B, Ba, Bi, Ca, Cd, Co, Cr, Cu, Fe, Ga, In, K, Li, Mg, Mn, Na, Ni, Pb, Sr, Tl, Zn in dilute nitric acid.
(§5) Each solution (1 mL) was diluted to 10 mL using either 2 M HCl or 6 M HCl, resulting in solutions of 10 ppm Au, Ir, Os, Pd, Pt, Rh, Ru and 100 mg L^−Al, B, Ba, Bi, Ca, Cd, Co, Cr, Cu, Fe, Ga, In, K, Li, Mg, Mn, Na, Ni, Pb, Sr, Tl, Zn. The solutions were filtered prior to use in precipitation experiments due to the precipitation of silver chloride, which was subsequently excluded from ICP-OES analysis. The precipitation method used for the 0.01 M mixed-metal solutions was followed.
(§6) FIGS. 25(a)-(c) show alternative embodiments of the compounds that were tested. Conditions were: 0.2 mmol of compound contacted with a 2 M or 6 M HCl multi element solution for 24 hours, RT.
(§7) The solution comprised: • 10 mg L^−1 Au, Ir, Os, Pd, Pt, Rh, Ru; and • 100 mg L^−1 Al, B, Ba, Bi, Ca, Cd, Co, Cr, Cu, Fe, Ga, In, K, Li, Mg, Mn, Na, Ni, Pb, Sr, Tl, Zn/

[10] = Precipitation from multi-element ICP standard solutions (FIG. 4, FIG. 25): Tl; conditions: excess compound, 24 hours, RT
Protocol: as §4, §5, §6, §7

[11] = Precipitation from multi-element ICP standard solutions (FIG. 4, FIG. 25): Ga; conditions: 6 M HCl multi-element solution (100 mg L^−1 Ga), excess compound, 24 hours, RT
Protocol: as §4, §5, §6, §7

[12] = Precipitation from multi-element ICP standard solutions (FIG. 4, FIG. 25): Fe; conditions: 6 M HCl multi-element solution (100 mg L^−1 Fe), excess compound, 24 hours, RT
Protocol: as §4, §5, §6, §7

[13] = Precipitation from multi-element ICP standard solutions (FIG. 4): Pt; conditions: multi-element ICP standard solutions in HCl, Pt present as Pt(II), excess L
Protocol: as §4, §5

[14] = Selective precipitation from waste printed circuit boards (Table 3): Au; conditions: 20% aqua regia solution from waste printed circuit boards; 0.02 mmol L, 1 hour
Protocol: (§8) End-of-life printed circuit boards were supplied by Edinburgh School of Chemistry workshop. Gold-tipped sections of the circuit boards (22.85 g) were cut off and soaked in 100 mL aqua regia for 24 hours. This solution was then diluted with deionised water to 250 mL and the metal content analysed by ICP-OES.
(§9) An aliquot of the e-waste solution (2 mL) was stirred with L (0.0059 g, 0.02 mmol, excess with respect to the gold concentration) for 1 hour at room temperature after which the stir bar was removed and the vial centrifuged. The supernatant was decanted and samples prepared for ICP-OES analysis to measure the uptake of metal. Samples were diluted by 1000× and 20× in 2% nitric acid prior to ICP-OES analysis. This procedure was repeated in triplicate.

[15] = Selective precipitation from waste printed circuit boards (Table 3): Cu; conditions: 20% aqua regia solution from waste printed circuit boards; 0.02 mmol L, 1 hour
Protocol: as §8, §9

[16] = Selective precipitation from waste printed circuit boards (Table 3): Ni; conditions: 20% aqua regia solution from waste printed circuit boards; 0.02 mmol L, 1 hour
Protocol: as §8, §9

[17] = Selective precipitation from waste printed circuit boards (Table 3): Pb; conditions: 20% aqua regia solution from waste printed circuit boards; 0.02 mmol L, 1 hour
Protocol: as §8, §9

[18] = Selective precipitation from waste printed circuit boards (Table 3): Sn; conditions: 20% aqua regia solution from waste printed circuit boards; 0.02 mmol L, 1 hour
Protocol: as §8, §9

[19] = Precipitation from 0.01 M mixed-metal solution of precious metals in 6 M HCl (FIG. 10); conditions: 0.01 M precious metals in 6 M HCl
Protocol: FIG. 10 Graph showing percentage metal(s) removed by precipitation from a 0.01 M mixed-metal solution of precious metals in 6 M HCl following the addition of either 0.2 mmol of compound L (10-fold excess L relative to metal) or 0.02 mmol of L (equimolar);
as §1, §2
Referring to FIG. 10, there is shown a graph depicting percentage metal(s) removed by precipitation from a 0.01 M mixed-metal solution of precious metals in 6 M HCl following the addition of either 0.2 mmol of compound L (10-fold excess L relative to metal) or 0.02 mmol of L (equimolar).

[20] = Quantitative NMR solubility experiments; format: physicochemical
Protocol: ^1H NMR spectra were recorded on a Bruker Avance III 400 MHz spectrometer. 2 M and 6 M HCl solutions were diluted from concentrated HCl in D2O. A 0.1 M solution of L in 2 M or 6 M HCl was prepared by adding L (0.0178 g) to an NMR tube along with the relevant HCl/D2O solution (0.55 mL) and 1 M tert-butanol in D2O (0.05 mL) as an internal standard. Any undissolved solids were allowed to settle to the bottom of the NMR tube before acquiring ^1H NMR spectra.
^1H NMR spectra were acquired for 2 M HCl solutions between 300-350 K in 10 K increments and for 6 M HCl solutions between 300-330 K in 10 K increments; attempts to acquire additional spectra beyond 330 K for these latter samples were unsuccessful due to excessive line broadening of the spectra and difficulties with sample locking.

[21] = Gold precipitation from HAuCl4 solutions versus acid concentration and temperature (FIGS. 7-9)

## CN(CCN(C)C(=O)c1ccccc1)C(=O)c1ccccc1 [L]
[1]; 2 mol L^−1 H2SO4 and 2M NaBr, Au^0 with H2O2, initial Au 1930 mg L^−1
  % Precipitated: 99.5%
[1]; 2 mol L^−1 H2SO4 and 2M NaCl, Au^0 with H2O2, initial Au 1940 mg L^−1
  % Precipitated: 99.4%
[1]; 20% Aqua regia, HAuCl4 used, initial Au 1920 mg L^−1
  % Precipitated: 99.8%
[1]; 100% Aqua regia, HAuCl4 used, initial Au 1920 mg L^−1
  % Precipitated: 99.7%
[2]
  % Precipitation: 99.6%
[3]; 0.2 mmol solid L (10-fold excess), 0.01 M each of Au, Al, Cu, Ni, Fe, Zn, Pt, Pd, Sn in 2 M HCl
  removal of Au by precipitation: near quantitative removal of Au
[3]; excess L, 0.01 M mixed-metal solution in 6 M HCl
  uptake of Au: complete uptake
[3]; stoichiometric L (0.02 mmol), 0.01 M mixed-metal solution in 2 M HCl
  metal uptake (selectivity): gold uptake only
[3]; stoichiometric L, 0.01 M mixed-metal solution in 6 M HCl
  metal uptake (selectivity): selective gold uptake
[4]
  co-precipitation of other metals: < 5%
[5]
  uptake of Fe: complete uptake
[6]
  uptake of Sn: complete uptake
[7]
  uptake of Pt: complete uptake
[8]; L loaded with Au, Fe, Pt and Sn at 6 M HCl, then wash with 2 M HCl
  metal stripped from the precipitate by a 2 M HCl wash: dissolution of Fe, Sn and Pt only, with Au retained on the solids
[8]; isolated solids after the 2 M HCl wash, washed with DI water
  metal stripped from the precipitate by subsequent wash with DI water: releases the Au into solution
[9]; 2 M HCl multi-element solution (10 mg L^−1 Au)
  % uptake / precipitation of Au: 70%
[9]; 6 M HCl multi-element solution (10 mg L^−1 Au)
  % uptake / precipitation of Au: > 99%
[10]; 2 M HCl multi-element solution (100 mg L^−1 Tl)
  % uptake / precipitation of Tl: 10%
[10]; 6 M HCl multi-element solution (100 mg L^−1 Tl)
  % uptake / precipitation of Tl: 95%
[11]
  % uptake / precipitation of Ga: > 99%
[12]
  % uptake / precipitation of Fe: 70%
[13]
  Pt uptake: no Pt uptake
[14]
  % metal precipitated, Au: 98.1%
[15]
  % metal precipitated, Cu: 0%
[16]
  % metal precipitated, Ni: 0%
[17]
  % metal precipitated, Pb: 0%
[18]
  % metal precipitated, Sn: 0%
[19]; equimolar L (0.02 mmol)
  metal(s) removed by precipitation (selectivity): selective precipitation of gold over other precious metals
[19]; excess L (0.2 mmol, 10-fold)
  metal(s) removed by precipitation (selectivity): selective co-precipitation of gold and platinum
[20]; 2 M HCl, heated to 350 K
  concentration of dissolved L: 100 µM
[20]; 2 M HCl, quantitative 1H NMR
  Dissolution of L (concentration of dissolved L): 0.02 mM
[20]; 6 M HCl, 300 K
  concentration of dissolved L: 320 µM
[20]; 300 K
  increase in dissolved L on increasing HCl from 2 M to 6 M: 16 fold
[21]; 2 M HCl, from 20 to 40° C. and from 40 to 80° C.
  quantity of [HL][AuCl4] precipitated over 5 minutes on raising temperature: doubles
[21]; solution of L in 12 M HCl
  precipitation of [HL][AuCl4] on addition of HAuCl4: rapid and wholesale precipitation
